Values quoted from earlier work as cited in US20150320893A1, “TREATMENT OF LATENT HIV INFECTION” (priority 2012, published 2015).

Test system: latent virus in harboring cells
Conditions: by manipulating the PKC pathway(s) within the cell

| SMILES | ability to induce latent viral replication |
| --- | --- |
| CC(=O)O[C@@]12C[C@@H](C)[C@@]3(O)[C@@H](C=C(CO)C[C@]4(O)C(=O)C(C)=C[C@@H]34)[C@@H]1C2(C)C [Prostratin] | induce latent viral replication without encouraging cell cycle progression |
| CCC/C=C/C=C/C(=O)O[C@H]1/C(=C/C(=O)OC)C[C@H]2C[C@H]([C@@H](C)O)OC(=O)C[C@H](O)C[C@@H]3C[C@H](OC(C)=O)C(C)(C)[C@](O)(C[C@@H]4C/C(=C/C(=O)OC)C[C@H](/C=C/C(C)(C)[C@]1(O)O2)O4)O3 [bryostatin-1, bryostatin 1] | induce latent viral replication without encouraging cell cycle progression |
